Tests used:
[1] = target: GST(1-218)-(FACTOR_XA)-hsBCLXL(2-209) (Homo sapiens (Human), UniProt Q07817); assay: Fluorescence polarisation assay; assay type: binding
Procedure: Fluorescence polarization measures the rotation of a fluorescing species in solution, the larger the molecule the more polarized the fluorescence emission.
(GST UniProtKB® primary accession number P08515 and BCLXL UniProtKB® primary accession number Q07817-1), • resulting in an increase in anisotropy. If a compound is added which competitively binds to the same site as the probe, thereby releasing it, anisotropy decreases due to the increased amount of free probe.
An 11-point serial dilution of each compound was prepared in DMSO, the final buffer conditions were 10 mM 4-(2-hydroxyethyl)-1-piperazineethanesulfonic acid [HEPES], 150 mM NaCl, 0.05% Tween 20, pH 7.4 and 5% DMSO. The final protein concentration in the assay was 20 nM with the fluorescent probe present at 10 nM. […] 1; 37 (WebServer issue): W441-W445.

H146 cells = assay: H146 cell viability using MTT assay; assay type: cell-based; conditions: Homo sapiens, NCI-H146, 48 h exposure
Summary of the method: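 Cells were cultured in RPMI 1640 with 10% heat-inactivated FBS, penicillin/streptomycin and 2 mM L-glutamine, then exposed 48 h to 9 concentrations (3.16-fold series, triplicates). MTT was added for 4 h and formazan solubilised overnight in SDS/HCl. OD was read at 540 nm and IC50 fitted with four-parameter curves.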

MOLT-4 cells = assay: MOLT-4 cell viability using MTT assay; assay type: cell-based; conditions: Homo sapiens, MOLT-4, 48 h, 48 h exposure
Procedure: MTT colorimetric assay is based on the mitochondrial reduction of tetrazolium salt by living cells.
Cells were cultured at 37° C. in a humidified atmosphere containing 5% CO2. […] At the end of incubation time, 15 μL of MTT solution (5 mg/ml) were added per well and the cells were incubated for another 4 h. […] IC50s were calculated using standard four-parametric curve fitting.

[2] = target: His-His-(EK)-hsBCLXL(2-197)[N197C] (Homo sapiens (Human), UniProt Q07817, N197C); assay: Fluorescence quenching assay; assay type: binding; conditions: 1 nM Cy5-labelled protein, 400 nM PUMA peptide, 2 hours at 23° C.; KI determined from IC50
Summary of the method: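 Cy5-labelled BCL-xL (1 nM) with TQ5WS quencher-labelled PUMA peptide (400 nM); displacement by compound (11-point dilution) raises fluorescence. Buffer 10 mM HEPES, 150 mM NaCl, 0.05% Tween 20, pH 7.4, 5% DMSO; 2 h at 23° C, Ex 620/Em 680 nm. Ki derived from IC50.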

GST(1-218)-(FACTOR_XA)-hsBCLXL(2-209), sequence (Q07817 other isoform, or with tags, fused parts or gaps): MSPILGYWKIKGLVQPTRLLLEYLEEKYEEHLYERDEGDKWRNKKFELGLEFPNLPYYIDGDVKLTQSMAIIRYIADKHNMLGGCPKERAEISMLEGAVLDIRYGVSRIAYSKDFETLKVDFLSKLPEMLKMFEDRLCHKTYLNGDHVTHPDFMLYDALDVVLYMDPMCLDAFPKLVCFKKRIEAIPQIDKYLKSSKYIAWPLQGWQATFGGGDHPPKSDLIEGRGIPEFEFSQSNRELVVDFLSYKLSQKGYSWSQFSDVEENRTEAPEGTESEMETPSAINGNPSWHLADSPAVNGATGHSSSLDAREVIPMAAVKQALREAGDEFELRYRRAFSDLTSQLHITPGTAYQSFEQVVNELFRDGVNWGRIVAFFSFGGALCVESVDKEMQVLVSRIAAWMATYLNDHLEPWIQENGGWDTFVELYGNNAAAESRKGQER
His-His-(EK)-hsBCLXL(2-197)[N197C], sequence (Q07817 2-197 N197C): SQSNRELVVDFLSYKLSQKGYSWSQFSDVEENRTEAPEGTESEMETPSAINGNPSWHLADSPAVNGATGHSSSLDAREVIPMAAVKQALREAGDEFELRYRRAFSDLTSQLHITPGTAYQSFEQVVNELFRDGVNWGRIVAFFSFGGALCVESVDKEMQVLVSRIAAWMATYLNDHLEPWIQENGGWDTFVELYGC

SMILES: O=C(O)c1csc(N2CCCc3cc(Nc4nc5ccccc5s4)ccc32)n1 [Example 1, 2-{6-[(1,3-Benzothiazol-2-yl)amino]-1,2,3,4-tetrahydroquinolin-1-yl}-1,3-thiazole-4-carboxylic acid]
- Ki [1]: 37000 nM

SMILES: O=C(O)c1csc(-n2ccc3cc(Nc4nc5ccccc5s4)ccc32)n1 [Example 2, 2-{5-[(1,3-Benzothiazol-2-yl)amino]-1H-indol-1-yl}-1,3-thiazole-4-carboxylic acid]
- Ki [1]: > 10000 nM

SMILES: O=C(O)c1csc(N2CCc3cc(Nc4nc5ccccc5s4)ccc32)n1 [Example 3, 2-{5-[(1,3-Benzothiazol-2-yl)amino]-2,3-dihydro-1H-indol-1-yl}-1,3-thiazole-4-carboxylic acid]
- Ki [1]: 36000 nM

SMILES: O=C(O)c1csc(N2CCOc3cc(Nc4nc5ccccc5s4)ccc32)n1 [Example 4, 2-{7-[(1,3-Benzothiazol-2-yl)amino]-3,4-dihydro-2H-1,4-benzoxazin-4-yl}-1,3-thiazole-4-carboxylic acid]
- Ki [1]: > 10000 nM

SMILES: O=C(O)c1cccc(-n2ccc3cc(Nc4nc5ccccc5s4)ccc32)n1 [Example 5, 6-{5-[(1,3-Benzothiazol-2-yl)amino]-1H-indol-1-yl}pyridine-2-carboxylic acid]
- Ki [1]: > 10000 nM

SMILES: O=C(O)c1csc(-n2ccc3cc(Nc4nc5ccccc5s4)cnc32)n1 [Example 6, 2-{5-[(1,3-Benzothiazol-2-yl)amino]-1H-pyrrolo[2,3-b]pyridin-1-yl}-1,3-thiazole-4-carboxylic acid]
- Ki [1]: > 10000 nM

SMILES: O=C(O)c1csc(-n2ccc3cc(Nc4nc5ccccc5s4)ncc32)n1 [Example 7, 2-{5-[(1,3-Benzothiazol-2-yl)amino]-1H-pyrrolo[2,3-c]pyridin-1-yl}-1,3-thiazole-4-carboxylic acid]
- Ki [1]: 9900 nM

SMILES: O=C(O)c1csc(-n2ccc3cc(Nc4nc5ccccc5s4)nnc32)n1 [Example 8, 2-{3-[(1,3-Benzothiazol-2-yl)amino]-7H-pyrrolo[2,3-c]pyridazin-7-yl}-1,3-thiazole-4-carboxylic acid]
- Ki [1]: 1100 nM

SMILES: O=C(O)c1nc(-n2ccc3cc(Nc4nc5ccccc5s4)nnc32)sc1CCCOc1ccccc1F [Example 9, 2-{3-[(1,3-Benzothiazol-2-yl)amino]-7H-pyrrolo[2,3-c]pyridazin-7-yl}-5-[3-(2-fluorophenoxy)propyl]-1,3-thiazole-4-carboxylic acid]
- Ki [1]: 13 nM
- IC50 (H146 cells): 2340 nM

SMILES: O=C(O)c1csc(N2CCc3cc(Nc4nc5ccccc5s4)nnc32)n1 [Example 10, 2-{3-[(1,3-Benzothiazol-2-yl)amino]-5H,6H,7H-pyrrolo[2,3-c]pyridazin-7-yl}-1,3-thiazole-4-carboxylic acid]
- Ki [1]: 210 nM
- IC50 (MOLT-4 cells): > 15000 nM
- IC50 (H146 cells): > 15000 nM

SMILES: O=C(O)c1csc(N2CCCc3cc(Nc4nc5ccccc5s4)nnc32)n1 [Example 12, 2-{3-[(1,3-Benzothiazol-2-yl)amino]-5H,6H,7H,8H-pyrido[2,3-c]pyridazin-8-yl}-1,3-thiazole-4-carboxylic acid]
- Ki [1]: 30 nM

SMILES: Cc1c(Nc2nc3ccccc3s2)nnc2c1CCN2c1nc(C(=O)O)c(-c2cnn(CC34CC5CC(CC(C5)C3)C4)c2C)s1 [Example 13, 5-{1-[(Adamantan-1-yl)methyl]-5-methyl-1H-pyrazol-4-yl}-2-{3-[(1,3-benzothiazol-2-yl)amino]-4-methyl-5H,6H,7H-pyrrolo[2,3-c]pyridazin-7-yl}-1,3-thiazole-4-carboxylic acid]
- Ki [1]: 9.2 nM
- IC50 (MOLT-4 cells): 126 nM
- IC50 (H146 cells): 790 nM

SMILES: COCCCC1(Cn2ncc(-c3sc(N4CCc5c4nnc(Nc4nc6ccccc6s4)c5C)nc3C(=O)O)c2C)CCCCCCC1 [Example 14, 2-{3-[(1,3-Benzothiazol-2-yl)amino]-4-methyl-5H,6H,7H-pyrrolo[2,3-c]pyridazin-7-yl}-5-(1-{[1-(3-methoxypropyl)cyclooctyl]methyl}-5-methyl-1H-pyrazol-4-yl)-1,3-thiazole-4-carboxylic acid]
- Ki [1]: 5.5 nM
- IC50 (MOLT-4 cells): 453 nM
- IC50 (H146 cells): 3080 nM

SMILES: Cc1c(Nc2nc3ccccc3s2)nnc2c1CCCN2c1nc(C(=O)O)cs1 [Example 15, 2-{3-[(1,3-Benzothiazol-2-yl)amino]-4-methyl-5H,6H,7H,8H-pyrido[2,3-c]pyridazin-8-yl}-1,3-thiazole-4-carboxylic acid]
- Ki [1]: 2.3 nM
- IC50 (MOLT-4 cells): 1050 nM
- IC50 (H146 cells): 2600 nM

SMILES: CC1Cc2cc(Nc3nc4ccccc4s3)nnc2N1c1nc(C(=O)O)cs1 (stereo not drawn) [Example 16, 2-{3-[(1,3-Benzothiazol-2-yl)amino]-6-methyl-5H,6H,7H-pyrrolo[2,3-c]pyridazin-7-yl}-1,3-thiazole-4-carboxylic acid]
- Ki [1]: 120 nM

SMILES: COCCCC1(Cn2ncc(-c3sc(N4CCc5c4nnc(Nc4nc6ccccc6s4)c5C)nc3C(=O)O)c2C)CCCCC1 [Example 17, 2-{3-[(1,3-Benzothiazol-2-yl)amino]-4-methyl-5H,6H,7H-pyrrolo[2,3-c]pyridazin-7-yl}-5-(1-{[1-(3-methoxypropyl)cyclohexyl]methyl}-5-methyl-1H-pyrazol-4-yl)-1,3-thiazole-4-carboxylic acid]
- Ki [1]: 2 nM
- IC50 (MOLT-4 cells): 128 nM
- IC50 (H146 cells): 393 nM

SMILES: Cc1c(Nc2nccs2)nnc2c1CCN2c1nc(C(=O)O)cs1 [Example 18, 2-{4-Methyl-3-[(1,3-thiazol-2-yl)amino]-5H,6H,7H-pyrrolo[2,3-c]pyridazin-7-yl}-1,3-thiazole-4-carboxylic acid]
- Ki [1]: 5000 nM

SMILES: Cc1nc(Nc2nnc3c(c2C)CCN3c2nc(C(=O)O)cs2)sc1C [Example 19, 2-{3-[(4,5-Dimethyl-1,3-thiazol-2-yl)amino]-4-methyl-5H,6H,7H-pyrrolo[2,3-c]pyridazin-7-yl}-1,3-thiazole-4-carboxylic acid]
- Ki [1]: 3300 nM

SMILES: Cc1c(Nc2nc3ccccc3s2)nnc2c1CCN2c1cccc(C(=O)O)n1 [Example 20, 6-{3-[(1,3-Benzothiazol-2-yl)amino]-4-methyl-5H,6H,7H-pyrrolo[2,3-c]pyridazin-7-yl}pyridine-2-carboxylic acid]
- Ki [1]: 85 nM
- IC50 (MOLT-4 cells): 162 nM
- IC50 (H146 cells): 3100 nM

SMILES: Cc1c(Nc2nc3ccccc3s2)nnc2c1CCCN2c1cccc(C(=O)O)n1 [Example 21, 6-{3-[(1,3-Benzothiazol-2-yl)amino]-4-methyl-5H,6H,7H,8H-pyrido[2,3-c]pyridazin-8-yl}pyridine-2-carboxylic acid]
- Ki [1]: 1600 nM
- IC50 (MOLT-4 cells): 4230 nM
- IC50 (H146 cells): > 15000 nM

SMILES: Cc1c(Nc2nc3ccccc3s2)nnc2c1CCCCN2c1nc(C(=O)O)cs1 [Example 25, 2-{3-[(1,3-Benzothiazol-2-yl)amino]-4-methyl-5H,6H,7H,8H,9H-pyridazino[3,4-b]azepin-9-yl}-1,3-thiazole-4-carboxylic acid]
- Ki [1]: 120 nM

SMILES: Cc1c(Nc2nc3ccccc3s2)nnc2c1CCCN2c1cccc(C(=O)O)c1 [Example 26, 3-{3-[(1,3-Benzothiazol-2-yl)amino]-4-methyl-5H,6H,7H,8H-pyrido[2,3-c]pyridazin-8-yl}benzoic acid]
- Ki [1]: 15000 nM
- IC50 (MOLT-4 cells): ≥ 13400 nM
- IC50 (H146 cells): > 15000 nM

SMILES: O=C(O)c1csc(N2CCc3c2nnc(Nc2nc4ccccc4s2)c3C2CC2)n1 [Example 28, 2-{3-[(1,3-Benzothiazol-2-yl)amino]-4-cyclopropyl-5H,6H,7H-pyrrolo[2,3-c]pyridazin-7-yl}-1,3-thiazole-4-carboxylic acid]
- Ki [1]: 14 nM
- IC50 (MOLT-4 cells): 880 nM
- IC50 (H146 cells): 3140 nM

SMILES: Cc1c(Nc2nc3ccccc3s2)nnc2c1CCCCN2c1ccc(-c2cnn(CC34CC5CC(CC(C5)C3)C4)c2C)c(C(=O)O)n1 [Example 29, 3-{1-[(Adamantan-1-yl)methyl]-5-methyl-1H-pyrazol-4-yl}-6-{3-[(1,3-benzothiazol-2-yl)amino]-4-methyl-5H,6H,7H,8H,9H-pyridazino[3,4-b]azepin-9-yl}pyridine-2-carboxylic acid]
- Ki [1]: 9.6 nM

SMILES: CNCC#Cc1ccc(OCCCc2sc(N3CCCc4c3nnc(Nc3nc5ccccc5s3)c4C)nc2C(=O)O)c(F)c1 [Example 32, 2-{3-[(1,3-Benzothiazol-2-yl)amino]-4-methyl-5H,6H,7H,8H-pyrido[2,3-c]pyridazin-8-yl}-5-(3-{2-fluoro-4-[3-(methylamino)prop-1-yn-1-yl]phenoxy}propyl)-1,3-thiazole-4-carboxylic acid]
- Ki [1]: < 1 nM
- IC50 (MOLT-4 cells): 0.987 nM
- Ki [2]: 0.0046 nM

SMILES: Cc1c(Nc2nc3ccccc3s2)nnc2c1C[C@@H](O)CN2c1nc(C(=O)O)cs1 [Example 33, 2-[(6R)-3-[(1,3-Benzothiazol-2-yl)amino]-6-hydroxy-4-methyl-5H,6H,7H,8H-pyrido[2,3-c]pyridazin-8-yl]-1,3-thiazole-4-carboxylic acid]
- Ki [1]: 5.5 nM
- Ki [2]: 1.4 nM

Reference: patent publication US12570648B2, “6,7-dihydro-5H-pyrido[2,3-c]pyridazine derivatives and related compounds as Bcl-xL protein inhibitors and pro-apoptotic agents for treating cancer” (LES LABORATOIRES SERVIER, priority 2019, dated 2026)
